Experimental data taken from patent US20240391912A1, “MORPHIC FORMS OF CFT7455 AND METHODS OF MANUFACTURE THEREOF” (C4 THERAPEUTICS, INC., priority 2022, published 2024).
Converted amounts (≈) assume the structure as drawn.

Assays:
[1] = Approximate solubility of Compound 5 Form V at 25° C. (visual observation / HPLC); assay type: physicochemical; settings: for solubility: solubilized at about 25° C.
Experimental: About 5 mg of Compound 5 Form V was weighed to an 8 mL glass vial. 100 μL aliquots of each solvent were added to dissolve the drug substance at 25° C. Vortex and sonication were applied to assist dissolution. The maximum volume of each solvent added is 1 mL. Approximate solubility was determined by visual observation.
For low solubility samples: Aliquots of selected solvent were added to 5 mg of Compound 5 create a suspension. The suspensions were kept at 25° C. for 24 hours. The suspension was taken out and centrifuged. To eliminate solvent effect, 50 μL or 100 μL of supernatant was added into a 2 mL glass vial and evaporated at ambient condition (22-25° C., 30-60% RH).

[2] = Equilibration of Compound 5 Form V with solvents at 25° C. for 1 week (XRPD); assay type: physicochemical
Experimental: The obtained suspensions were centrifuged at 14,000 rpm. The solid parts (wet cakes) were investigated by XRPD.

[3] = Crystallization of Compound 5 at room temperature by fast evaporation; assay type: physicochemical
Experimental: Based on approximate solubility results, about 20 mg of Compound 5 Form V was dissolved in 1-6 mL of solvents. […] The solid residue was investigated by XRPD. For samples with different XRPD patterns, ^1H-NMR was performed.

[4] = Crystallization of Compound 5 from hot saturated solutions by fast cooling; assay type: physicochemical; settings: fast cooling to about 0° C.
Experimental: Based on approximate solubility results, about 30 mg of Compound 5 Form V was dissolved in a minimal amount of selected solvent at 50° C. […] No precipitate came out by fast cooling.

[5] = Crystallization of Compound 5 by addition of anti-solvent; assay type: physicochemical
Experimental: The obtained solutions were filtered through a 0.45 μm syringe membrane filter. […] Precipitates were investigated by XRPD. For samples with different XRPD patterns, ^1H-NMR was performed.

[6] = Approximate solubility of Compound 5 polymorphs in EtOH:DCM (v:v=1:4); assay type: physicochemical; settings: EtOH:DCM (v:v = 1:4), 25° C.
Experimental: Four polymorphs (Form V, Form VI, Form VII and Form VIII) were weighed respectively and a suitable amount of solvent mixture EtOH:DCM (v:v=1:4) was added. The obtained samples were stirred at a rate of 400 rpm at 25° C.

[7] = Characterization of polymorphs and pseudo-polymorphs of Compound 5; assay type: physicochemical
[8] = molecular target: T1, Ikaros (also known as IKZF1) (Homo sapiens, UniProt Q13422+Q96SW2); experiment: Ikaros degradation in PBMC of patients (mass spectrometry); assay type: in vivo; settings: Patients 2, 4, 5; oral 50 μg/day or 25 μg/day; 4 hours, day 7, 14, 21 of cycle 1
T1 construct: total peripheral blood mononuclear cell (PBMC) population extracted from whole blood samples of Patient 2, Patient 4, and Patient 5; endogenous in cells; host or cells: peripheral blood mononuclear cells (PBMC) from whole blood of treated patients
T1 sequence (Q13422 whole entry): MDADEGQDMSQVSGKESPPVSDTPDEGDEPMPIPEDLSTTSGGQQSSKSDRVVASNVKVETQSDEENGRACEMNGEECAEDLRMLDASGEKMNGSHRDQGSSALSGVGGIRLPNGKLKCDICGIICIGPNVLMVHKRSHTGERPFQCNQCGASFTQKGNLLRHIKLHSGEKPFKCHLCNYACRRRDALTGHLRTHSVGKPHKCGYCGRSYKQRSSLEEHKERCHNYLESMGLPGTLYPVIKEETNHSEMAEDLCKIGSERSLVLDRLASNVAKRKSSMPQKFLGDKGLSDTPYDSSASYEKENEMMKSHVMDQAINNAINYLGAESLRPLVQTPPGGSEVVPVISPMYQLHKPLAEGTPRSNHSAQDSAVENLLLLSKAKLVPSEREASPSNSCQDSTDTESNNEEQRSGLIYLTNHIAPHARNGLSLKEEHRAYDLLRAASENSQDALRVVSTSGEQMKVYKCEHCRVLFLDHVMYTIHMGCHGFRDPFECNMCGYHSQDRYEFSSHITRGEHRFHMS
T1 sequence (Q96SW2 whole entry): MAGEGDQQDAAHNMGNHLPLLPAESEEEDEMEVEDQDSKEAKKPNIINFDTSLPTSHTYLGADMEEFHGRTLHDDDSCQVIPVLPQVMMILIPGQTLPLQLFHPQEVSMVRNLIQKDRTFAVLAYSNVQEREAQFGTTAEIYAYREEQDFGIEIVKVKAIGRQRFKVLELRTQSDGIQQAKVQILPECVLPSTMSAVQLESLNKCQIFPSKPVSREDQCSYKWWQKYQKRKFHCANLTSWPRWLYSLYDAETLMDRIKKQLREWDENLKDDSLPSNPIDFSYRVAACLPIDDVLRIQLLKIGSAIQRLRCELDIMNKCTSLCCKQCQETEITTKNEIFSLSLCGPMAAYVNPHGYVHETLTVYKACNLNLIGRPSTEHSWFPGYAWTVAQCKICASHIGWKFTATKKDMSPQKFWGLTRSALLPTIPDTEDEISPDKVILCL
T1 sequence (Q16531 whole entry partner): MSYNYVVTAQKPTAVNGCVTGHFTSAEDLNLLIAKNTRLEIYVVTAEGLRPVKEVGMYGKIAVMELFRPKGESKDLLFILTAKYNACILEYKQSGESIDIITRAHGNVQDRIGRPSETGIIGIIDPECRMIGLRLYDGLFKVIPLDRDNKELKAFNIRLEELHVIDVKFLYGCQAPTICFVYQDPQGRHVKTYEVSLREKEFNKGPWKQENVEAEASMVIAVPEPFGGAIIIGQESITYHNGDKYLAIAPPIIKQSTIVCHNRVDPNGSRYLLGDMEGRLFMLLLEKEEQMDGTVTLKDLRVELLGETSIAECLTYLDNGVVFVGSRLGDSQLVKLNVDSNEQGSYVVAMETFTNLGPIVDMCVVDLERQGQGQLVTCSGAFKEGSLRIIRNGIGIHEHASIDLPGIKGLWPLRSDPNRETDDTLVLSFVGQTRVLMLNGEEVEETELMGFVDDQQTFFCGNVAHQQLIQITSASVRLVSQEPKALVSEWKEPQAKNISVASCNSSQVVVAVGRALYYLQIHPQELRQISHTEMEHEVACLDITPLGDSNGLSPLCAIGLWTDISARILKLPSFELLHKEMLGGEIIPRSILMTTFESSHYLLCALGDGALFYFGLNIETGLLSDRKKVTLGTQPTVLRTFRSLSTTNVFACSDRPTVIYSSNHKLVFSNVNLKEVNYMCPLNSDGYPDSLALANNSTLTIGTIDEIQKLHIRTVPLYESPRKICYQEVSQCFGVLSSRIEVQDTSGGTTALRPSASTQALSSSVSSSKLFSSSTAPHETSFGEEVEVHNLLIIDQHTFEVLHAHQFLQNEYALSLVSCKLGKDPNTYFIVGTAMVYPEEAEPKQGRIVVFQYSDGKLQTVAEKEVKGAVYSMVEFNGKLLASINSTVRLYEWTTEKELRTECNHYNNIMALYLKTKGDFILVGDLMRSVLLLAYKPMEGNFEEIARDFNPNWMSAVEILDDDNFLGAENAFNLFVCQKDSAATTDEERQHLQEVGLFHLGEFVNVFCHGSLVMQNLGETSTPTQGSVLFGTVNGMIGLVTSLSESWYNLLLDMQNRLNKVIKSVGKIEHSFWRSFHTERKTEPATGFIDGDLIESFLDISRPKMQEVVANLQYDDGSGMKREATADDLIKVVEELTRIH
Experimental: (§1) Ikaros (also known as IKZF1) and Aiolos (also known as IKZF3) degradation was evaluated using mass spectrometry analysis of total peripheral blood mononuclear cell (PBMC) population extracted from whole blood samples of Patient 2, Patient 4, and Patient 5 taken on the first day of the first cycle (cycle 1, day 1 or C1D1) prior to treatment, 4 hours post Compound 1 treatment, and on day 7, day 14, and day 21 of the treatment cycle.

[9] = molecular target: T2, Aiolos (also known as IKZF3) (Homo sapiens, UniProt Q9UKT9); experiment: Aiolos degradation in PBMC of patients (mass spectrometry); assay type: in vivo; settings: Patients 2, 4, 5; oral 50 μg/day or 25 μg/day; 4 hours, day 7, 14, 21 of cycle 1
T2 construct: total peripheral blood mononuclear cell (PBMC) population extracted from whole blood samples of Patient 2, Patient 4, and Patient 5; endogenous in cells; host or cells: peripheral blood mononuclear cells (PBMC) from whole blood of treated patients
T2 sequence (Q9UKT9 whole entry): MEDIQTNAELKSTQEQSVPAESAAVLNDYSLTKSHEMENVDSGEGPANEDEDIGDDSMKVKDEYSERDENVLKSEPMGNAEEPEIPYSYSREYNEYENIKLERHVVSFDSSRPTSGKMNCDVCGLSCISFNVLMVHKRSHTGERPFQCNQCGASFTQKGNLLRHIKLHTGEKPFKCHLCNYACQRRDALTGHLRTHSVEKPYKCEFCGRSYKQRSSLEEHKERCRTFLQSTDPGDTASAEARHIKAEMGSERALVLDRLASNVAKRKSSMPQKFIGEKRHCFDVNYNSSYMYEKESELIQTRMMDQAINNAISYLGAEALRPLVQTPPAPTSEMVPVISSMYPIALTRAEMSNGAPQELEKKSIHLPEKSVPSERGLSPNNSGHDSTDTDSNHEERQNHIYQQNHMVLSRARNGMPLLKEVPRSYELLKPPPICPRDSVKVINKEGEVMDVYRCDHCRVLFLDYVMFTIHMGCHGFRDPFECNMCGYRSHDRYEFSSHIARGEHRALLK
T2 sequence (Q96SW2 whole entry, further chain): as the sequence (Q96SW2 whole entry) above
T2 sequence (Q16531 whole entry partner): as the sequence (Q16531 whole entry partner) above
Experimental: as §1

[10] = tested on: involved and uninvolved free light chains; experiment: Reduction in dFLC after single agent exposure to Compound 1; assay type: in vivo, human
Experimental: Using samples collecting in Example 24, the difference between involved free light chains and uninvolved free light changes, or dFLC, for Patients 1-3 were calculated using the following formula:
[Abnormal light chainbaseline−normal light chainbaseline]−[Abnormal light chainnadir−normal light chainnadir]/[Abnormal light chainbaseline−normal light chainbaseline]*100 dFLC equation: […]

[11] = tested on: OCI-LY10 human DLBCL intracranial xenografts; experiment: OCI-LY10 human DLBCL intracranial xenograft study, survival
Experimental: Agents were tested in the OCI-LY10 human DLBCL intracranial model. […] Rituximab was administered from day 1 via i.v. once per week. Rituximab was dosed at 10 and 30 mg/kg. Individual mouse was euthanized once its body weight loss was over 20%.
The cells growing in an exponential growth phase were harvested and counted for tumor inoculation.
99 CB17 SCID mice were inoculated by intracranial injection with OCI-LY10 cells (1×10^6) for tumor development.
Tumor inoculation: Intraperitoneally injected avertin at dosage of 240 mg/kg to anaesthetize the CB17 SCID mice. Fixed the head of the anaesthetized mice to the brain solid positioner, sterilized the head skin with 70% alcohol. […] Punched a hole about 2 mm right of the anterior fontanel and 1 mm ahead the coronal on the skull with a 25 G needle. Cell suspensions were mixed and certain amount was sucked into the 5 μL injector slowly to avoid bubble formation. The cells were swapped around the needle with alcohol to avoid extracranial tumor genesis. The needle was stuck vertically into the formed hold and 5 μL of cell suspension containing 1×10^6 OCI-LY10 cells was slowly injected for over 1 minute. The injector was then held for another 1 minute and then pulled back to decrease the drainage of the cells suspension. The skin was closed with tweezers and then sewed. Meloxicam was then injected 30 min after the surgery at dosage of 5 mg/kg to relieve the pain. The animals were kept under monitoring until they were awake.
Animals were grouped for treatment on day 7 after tumor inoculation.
At the time of routine monitoring, the animals were daily checked for any effects of tumor growth and treatments on normal behavior such as mobility, food and water consumption (by looking only), body weight gain/loss (body weights were measured twice weekly), eye/hair matting and any other abnormal effect as stated in the protocol. Death and observed clinical signs were recorded on the basis of the numbers of animals within each subset.

[12] = Compound 1, 0.01 mg/kg, p.o., QD

Structure (SMILES): O=C1CCC(N2C(=O)c3cccc4c(Cc5ccc(CN6CCOCC6)cc5)ccc2c34)C(=O)N1 (racemic) [Compound 5 Form V]
- Solubility (mg/mL) at 25° C. ([1]; 1,4-Dioxane, tested by HPLC): 2.3 mg/mL (≈ 4.9 mM)
- Solubility (mg/mL) at 25° C. ([1]; 1-Methyl-2-pyrrolidinone, tested by observation): >50 mg/mL
- Solubility (mg/mL) at 25° C. ([1]; 2-Me THF, tested by HPLC): 0.2 mg/mL (≈ 0.426 mM)
- Solubility (mg/mL) at 25° C. ([1]; Acetic acid, tested by HPLC): 5.5 mg/mL (≈ 11.7 mM)
- Solubility (mg/mL) at 25° C. ([1]; Acetone, tested by HPLC): 3.3 mg/mL (≈ 7.03 mM)
- Solubility (mg/mL) at 25° C. ([1]; Acetonitrile, tested by HPLC): 2.2 mg/mL (≈ 4.69 mM)
- Solubility (mg/mL) at 25° C. ([1]; Anisole, tested by HPLC): 1.1 mg/mL (≈ 2.34 mM)
- Solubility (mg/mL) at 25° C. ([1]; Benzyl alcohol, tested by observation): 12 to 25 mg/mL
- Solubility (mg/mL) at 25° C. ([1]; Chloroform, tested by observation): 5 to 10 mg/mL
- Solubility (mg/mL) at 25° C. ([1]; DMF, tested by observation): 25 to 50 mg/mL
- Solubility (mg/mL) at 25° C. ([1]; DMSO, tested by observation): >50 mg/mL
- Solubility (mg/mL) at 25° C. ([1]; Ethanol, tested by HPLC): 0.6 mg/mL (≈ 1.28 mM)
- Solubility (mg/mL) at 25° C. ([1]; Ethyl acetate, tested by HPLC): 0.1 mg/mL (≈ 0.213 mM)
- Solubility (mg/mL) at 25° C. ([1]; MeOH/DCM (v:v = 1:1), tested by observation): ~5 mg/mL (≈ 10.6 mM)
- Solubility (mg/mL) at 25° C. ([1]; Methanol, tested by HPLC): 0.2 mg/mL (≈ 0.426 mM)
- Solubility (mg/mL) at 25° C. ([1]; Propylene glycol methyl ether, tested by HPLC): 2.3 mg/mL (≈ 4.9 mM)
- Solubility (mg/mL) at 25° C. ([1]; Propylene glycol, tested by HPLC): 3.4 mg/mL (≈ 7.24 mM)
- Solubility (mg/mL) at 25° C. ([1]; Pyridine, tested by observation): 25 to 50 mg/mL
- Solubility (mg/mL) at 25° C. ([1]; THF, tested by HPLC): 3.8 mg/mL (≈ 8.09 mM)
- Solubility (mg/mL) at 25° C. ([1]; Toluene, tested by HPLC): 0.2 mg/mL (≈ 0.426 mM)
- Solubility (mg/mL) at 25° C. ([1]; Trifluoroethanol, tested by observation): 25 to 50 mg/mL
- solubility ([1]; in 1-methyl-2-pyrrolidinone): at least 50 mg/mL
- solubility ([1]; in DMSO): at least 50 mg/mL
- XRPD ([2]; equilibration in Acetone): Form V
- XRPD ([2]; equilibration in Benzyl alcohol): Form V
- XRPD ([2]; equilibration in Chloroform): Form V
- XRPD ([2]; equilibration in DMF): Form V
- XRPD ([2]; equilibration in MeOH/DCM (v:v = 1:1)): Form V
- XRPD ([2]; equilibration in Pyridine, wet cake): Form V
- XRPD ([2]; equilibration in THF): Form V
- XRPD ([2]; equilibration in Trifluoroethanol): Form V
- XRPD ([3]; fast evaporation from 1-Methyl-2-pyrrolidinone): Form VII
- XRPD ([3]; fast evaporation from Benzyl alcohol): Form V
- XRPD ([3]; fast evaporation from Chloroform): Amorphous form
- XRPD ([3]; fast evaporation from DMSO, room temperature, dry nitrogen flow): Form VI
- XRPD ([3]; fast evaporation from THF): Form V
- Additional analysis (appearance of residue) ([3]; fast evaporation from Trifluoroethanol): Oil
- Additional analysis 1H-NMR: DMSO ([3]; residue (Form VI) of fast evaporation from DMSO): ^1H-NMR: 0.4 equiv. DMSO
- Additional analysis 1H-NMR: NMP ([3]; residue (Form VII) of fast evaporation from 1-Methyl-2-pyrrolidinone, 2 unknown peaks): ^1H-NMR: 1.6 equiv. NMP;
- Comments ([4]; 1-Methyl-2-pyrrolidinone, 50° C.): Clear solution
- Comments ([4]; Acetone, dissolved at 50° C.): Clear solution
- Comments ([4]; Benzyl alcohol, 50° C.): Clear solution
- Comments ([4]; Chloroform, 50° C.): Clear solution
- Comments ([4]; DMF, 50° C.): Clear solution
- Comments ([4]; Pyridine, 50° C.): Clear solution
- Comments ([4]; THF, 50° C.): Clear solution
- Comments ([4]; Trifluoroethanol, 50° C.): Clear solution
- Additional analysis 1H-NMR: DMF ([5]; precipitate (Form VIII) from DMF(1.0 mL)/H2O (2.0 mL)): 2 equiv. DMF
- XRPD ([5]; solvent DMF(1.0 mL), anti-solvent H2O (2.0 mL)): Form VIII
- Approximate solubility (visual appearance) ([6]; concentration 5 mg/mL): Suspension
- Approximate solubility (visual appearance) ([6]; concentration 10 mg/mL, listed as Form V): Suspension
- Approximate solubility (visual appearance) ([6]; concentration 20 mg/mL, listed as Form V): Suspension
- Residual solvent (by 1H-NMR): THF [7]: 0.4% residual of
- Endothermic onset (by DSC) ([7]; DSC): onset at 220.0 °C
- Dehydration (by DSC) ([7]; DSC, listed as Form V): Tonset 38.5° C.;
- Crystallinity (by XRPD) ([7]; XRPD method 2): Crystalline
- Weight loss (by TGA) ([7]; at 140° C.): 5.1% at 140 °C

Structure (SMILES): O=C1CC[C@H](N2C(=O)c3cccc4c(Cc5ccc(CN6CCOCC6)cc5)ccc2c34)C(=O)N1 [Compound 1, (S)-3-(6-(4-(morpholinomethyl)benzyl)-2-oxobenzo[cd]indol-1(2H)-yl)piperidine-2,6-dione]
- Ikaros (IKZF1) degradation in PBMC compared to baseline [8]: deep degradation
- Aiolos (IKZF3) degradation in PBMC compared to baseline [9]: deep degradation
- % Change at Nadir in dFLC ([10]; Patient 1, first dose 50 μg oral, no extramedullary disease, ∇ (down)): ∇ 48.2%
- % Change at Nadir in dFLC ([10]; Patient 2, first dose 50 μg oral, Multiple Plasmacytomas, ∇ (down)): ∇ 78.1%
- % Change at Nadir in dFLC ([10]; Patient 3, first dose 50 μg oral, Lytic Bone Lesions, ∇ (down)): ∇ 41.0%
- % Change at Nadir in dFLC ([10]; Patient 4, first dose 50 μg oral, no extramedullary disease, printed with Δ (up)): Δ 56.3%
- extension of survival time ([11]; Compound 1 0.01 mg/kg p.o. once per day, p=0.001): 35.7%
- Median Survival (Days), ± SEM [11, 12]: 19.00 ± 1.41 days
- Survival time extension (%) [11, 12]: 35.7%
